Laboratory results as given in patent US20040077674A1, “Mappicine analogs, intermediates in the synthesis of mappicine analogs and methods of synthesis of mappicine analogs” (priority 2002, published 2004).

Assays:
[1] = molecular target: T1, RNA-dependent DNA polymerase activity of HIV reverse transcriptase (Human immunodeficiency virus type 1 group M subtype B, UniProt P03366); assay: RNA-dependent DNA polymerase activity assay of HIV reverse transcriptase; format: biochemical, HIV-1; conditions: 10 μM inhibitor concentration; activity in presence / in absence of analog x 100
T1 construct: made in house
Description: In separate representative assays, mappicine analogs were tested for their ability to inhibit the RNA-dependent DNA polymerase activity of HIV reverse transcriptase and for their ability to inhibit the RNase H activity of HIV reverse transcriptase. The assay for RNA-dependent DNA polymerase activity is discussed in Borkow, G. et al., “Inhibition of the Ribonuclease H and DNA Polymerase Activities of HIV-1 Reverse Transcriptase by N-(4-tert-Butylbenzoyl)-2-hydroxy-1-naphthaldehyde Hydrazone,” Biochemistry 1997, 36, 3179-3185, a copy of which is attached hereto and the disclosure of which is incorporated herein by reference. Assays were carried out in the absence and in the presence of mappicine analogs (10 μM final concentration). The results are reported as % residual activity, which is the RNA-dependent DNA polymerase activity of the enzyme in the presence of the mappicine analog divided by the RNA-dependent activity of the enzyme in the absence of the mappicine analog, multiplied by 100.

[2] = molecular target: T2, RNase H activity of HIV reverse transcriptase (Human immunodeficiency virus type 1 group M subtype B, UniProt P03366); assay: Fluorescence (FRET)-based RNase H assay of HIV reverse transcriptase; format: biochemical, HIV-1; conditions: 10 μM inhibitor concentration; activity in presence / in absence of analog x 100
T2 construct: 2.5 nM of the p51/p66 RT heterodimer in the assay; made in house

Row | Compound | Residual activity (%) Polymerase [1] | Residual activity (%) RNase H [2]
1 | Cc1c(C(O)C(C)(C)C)cc2n(c1=O)Cc1c-2nc2ccccc2c1[Si](C)(C)C (stereo not drawn) [5 (5Aβ)] | 103% | 77%
2 | Cc1c(C(=O)C(C)(C)C)cc2n(c1=O)Cc1c-2nc2ccccc2c1[Si](C)(C)C [5 (5Aβκ)] | 47% | 97%
3 | Cc1c(C(O)CCC2CCCCC2)cc2n(c1=O)Cc1c-2nc2ccccc2c1[Si](C)(C)C (stereo not drawn) [5 (5Aδ)] | 83% | 78%
4 | Cc1c(C(=O)CCC2CCCCC2)cc2n(c1=O)Cc1c-2nc2ccccc2c1[Si](C)(C)C [5 (5Aδκ)] | 90% | 75%
5 | Cc1c(C(O)Cc2ccccc2)cc2n(c1=O)Cc1c-2nc2ccccc2c1[Si](C)(C)C (stereo not drawn) [5 (5Aε)] | 54% | 93%
6 | CCC(O)c1cc2n(c(=O)c1C)Cc1c-2nc2ccc(F)cc2c1[Si](C)(C)C (stereo not drawn) [5 (5Bα)] | 82% | 105%
7 | CCC(=O)c1cc2n(c(=O)c1C)Cc1c-2nc2ccc(F)cc2c1[Si](C)(C)C [5 (5Bακ)] | 74% | 89%
8 | Cc1c(C(O)C(C)(C)C)cc2n(c1=O)Cc1c-2nc2ccc(F)cc2c1[Si](C)(C)C (stereo not drawn) [5 (5Bβ)] | 74% | 102%
9 | Cc1c(C(=O)C(C)(C)C)cc2n(c1=O)Cc1c-2nc2ccc(F)cc2c1[Si](C)(C)C [5 (5Bβκ)] | 63% | 100%
10 | Cc1c(C(O)CCC2CCCCC2)cc2n(c1=O)Cc1c-2nc2ccc(F)cc2c1[Si](C)(C)C (stereo not drawn) [5 (5Bδ)] | 78% | 103%
11 | Cc1c(C(=O)CCC2CCCCC2)cc2n(c1=O)Cc1c-2nc2ccc(F)cc2c1[Si](C)(C)C [5 (5Bδκ)] | 46% | 78%
12 | Cc1c(C(O)Cc2ccccc2)cc2n(c1=O)Cc1c-2nc2ccc(F)cc2c1[Si](C)(C)C (stereo not drawn) [5 (5Bε)] | 49% | 88%
13 | CCC(O)c1cc2n(c(=O)c1C)Cc1c-2nc2ccc(C)cc2c1[Si](C)(C)C (stereo not drawn) [5 (5Cα)] | 68% | 62%
14 | CCC(=O)c1cc2n(c(=O)c1C)Cc1c-2nc2ccc(C)cc2c1[Si](C)(C)C [5 (5Cακ)] | 93% | 109%
15 | Cc1ccc2nc3c(c([Si](C)(C)C)c2c1)Cn1c-3cc(C(O)C(C)(C)C)c(C)c1=O (stereo not drawn) [5 (5Cβ)] | 72% | 80%
16 | Cc1ccc2nc3c(c([Si](C)(C)C)c2c1)Cn1c-3cc(C(=O)C(C)(C)C)c(C)c1=O [5 (5Cβκ)] | 76% | 92%
17 | Cc1ccc2nc3c(c([Si](C)(C)C)c2c1)Cn1c-3cc(C(O)CCC2CCCCC2)c(C)c1=O (stereo not drawn) [5 (5Cδ)] | 41% | 103%
18 | Cc1ccc2nc3c(c([Si](C)(C)C)c2c1)Cn1c-3cc(C(=O)CCC2CCCCC2)c(C)c1=O [5 (5Cδκ)] | 59% | 99%
19 | Cc1ccc2nc3c(c([Si](C)(C)C)c2c1)Cn1c-3cc(C(O)Cc2ccccc2)c(C)c1=O (stereo not drawn) [5 (5Cε)] | 87% | 93%
20 | CCC(O)c1cc2n(c(=O)c1C)Cc1c-2nc2ccc(OC)cc2c1[Si](C)(C)C (stereo not drawn) [5 (5Dα)] | 88% | 78%
21 | CCC(=O)c1cc2n(c(=O)c1C)Cc1c-2nc2ccc(OC)cc2c1[Si](C)(C)C [5 (5Dακ)] | 50% | 86%
22 | COc1ccc2nc3c(c([Si](C)(C)C)c2c1)Cn1c-3cc(C(O)C(C)(C)C)c(C)c1=O (stereo not drawn) [5 (5Dβ)] | 76% | 102%
23 | COc1ccc2nc3c(c([Si](C)(C)C)c2c1)Cn1c-3cc(C(=O)C(C)(C)C)c(C)c1=O [5 (5Dβκ)] | 64% | 86%

Row | Compound | Residual activity (%) Polymerase [1] | Residual activity (%) RNase H [2]
24 | COc1ccc2nc3c(c([Si](C)(C)C)c2c1)Cn1c-3cc(C(O)CCC2CCCCC2)c(C)c1=O (stereo not drawn) [5 (5Dδ)] | 57% | 96%
25 | COc1ccc2nc3c(c([Si](C)(C)C)c2c1)Cn1c-3cc(C(=O)CCC2CCCCC2)c(C)c1=O [5 (5Dδκ)] | 40% | 92%
26 | COc1ccc2nc3c(c([Si](C)(C)C)c2c1)Cn1c-3cc(C(O)Cc2ccccc2)c(C)c1=O (stereo not drawn) [5 (5Dε)] | 48% | 70%
27 | CCCCCCc1c2c(nc3ccccc13)-c1cc(C(O)CC)c(C)c(=O)n1C2 (stereo not drawn) [5 (8Aα)] | 42% | 83%
28 | CCCCCCc1c2c(nc3ccccc13)-c1cc(C(=O)CC)c(C)c(=O)n1C2 [5 (8Aακ)] | 53% | 77%
29 | CCCCCCc1c2c(nc3ccccc13)-c1cc(C(O)C(C)(C)C)c(C)c(=O)n1C2 (stereo not drawn) [5 (8Aβ)] | 103% | 91%
30 | CCCCCCc1c2c(nc3ccccc13)-c1cc(C(=O)C(C)(C)C)c(C)c(=O)n1C2 [5 (8Aβκ)] | 76% | 96%
31 | CCCCCCc1c2c(nc3ccccc13)-c1cc(C(O)CCC3CCCCC3)c(C)c(=O)n1C2 (stereo not drawn) [5 (8Aδ)] | 72% | 89%
32 | CCCCCCc1c2c(nc3ccccc13)-c1cc(C(=O)CCC3CCCCC3)c(C)c(=O)n1C2 [5 (8Aδκ)] | 63% | 97%
33 | CCCCCCc1c2c(nc3ccccc13)-c1cc(C(O)Cc3ccccc3)c(C)c(=O)n1C2 (stereo not drawn) [5 (8Aε)] | 58% | 71%
34 | CCCCCCc1c2c(nc3ccccc13)-c1cc(C(=O)Cc3ccccc3)c(C)c(=O)n1C2 [5 (8Aεκ)] | 59% | 92%
35 | CCCCCCc1c2c(nc3ccc(F)cc13)-c1cc(C(O)CC)c(C)c(=O)n1C2 (stereo not drawn) [5 (8Bα)] | 57% | 80%
36 | CCCCCCc1c2c(nc3ccc(F)cc13)-c1cc(C(=O)CC)c(C)c(=O)n1C2 [5 (8Bακ)] | 64% | 103%
37 | CCCCCCc1c2c(nc3ccc(F)cc13)-c1cc(C(O)C(C)(C)C)c(C)c(=O)n1C2 (stereo not drawn) [5 (8Bβ)] | 50% | 97%
38 | CCCCCCc1c2c(nc3ccc(F)cc13)-c1cc(C(=O)C(C)(C)C)c(C)c(=O)n1C2 [5 (8Bβκ)] | 44% | 81%
39 | CCCCCCc1c2c(nc3ccc(F)cc13)-c1cc(C(O)CCC3CCCCC3)c(C)c(=O)n1C2 (stereo not drawn) [5 (8Bδ)] | 90% | 112%
40 | CCCCCCc1c2c(nc3ccc(F)cc13)-c1cc(C(=O)CCC3CCCCC3)c(C)c(=O)n1C2 [5 (8Bδκ)] | 80% | 95%
41 | CCCCCCc1c2c(nc3ccc(F)cc13)-c1cc(C(O)Cc3ccccc3)c(C)c(=O)n1C2 (stereo not drawn) [5 (8Bε)] | 92% | 84%
42 | CCCCCCc1c2c(nc3ccc(C)cc13)-c1cc(C(O)CC)c(C)c(=O)n1C2 (stereo not drawn) [5 (8Cα)] | 84% | 65%
43 | CCCCCCc1c2c(nc3ccc(C)cc13)-c1cc(C(=O)CC)c(C)c(=O)n1C2 [5 (8Cακ)] | 31% | 92%
44 | CCCCCCc1c2c(nc3ccc(C)cc13)-c1cc(C(O)C(C)(C)C)c(C)c(=O)n1C2 (stereo not drawn) [5 (8Cβ)] | 111% | 93%
45 | CCCCCCc1c2c(nc3ccc(C)cc13)-c1cc(C(=O)C(C)(C)C)c(C)c(=O)n1C2 [5 (8Cβκ)] | 66% | 95%
